# Laboratory results taken from ChEMBL document CHEMBL1201862, “PubChem BioAssay data set” (2004).
#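 48-hour exposure; five concentrations; linearly interpolated endpoints. GI50 marks 50% less growth.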 The source made the active and inactive calls. Cut-off read from the data, not from the text of the source: active = GI50 up to about 1.1 µM and inactive = higher.
# What was measured:
# Assay in all cases: growth of human tumour cells (NCI), 48 h
# [1] = system: A498
# [2] = system: MDA-MB-435
# [3] = system: PC-3
# [4] = system: UACC-257
# [5] = system: BT-549
# [6] = system: K562
# [7] = system: NCI/ADR-RES
# [8] = system: TK-10
# [9] = system: SF-295
# [10] = system: MDA-MB-231
# [11] = system: RXF 393
# [12] = system: SR
# [13] = system: NCI-H460
# [14] = system: ACHN
# [15] = system: SK-MEL-5
# [16] = system: SW-620
# [17] = system: OVCAR-3
# [18] = system: UACC-62
# [19] = system: EKVX
# [20] = system: SNB-19
# [21] = system: RPMI-8226
# [22] = system: SN12C
# [23] = system: 786-0
# [24] = system: T47D
# [25] = system: IGROV-1
# [26] = system: SF-268
# [27] = system: OVCAR-4
# [28] = system: NCI-H226
# [29] = system: KM12
# [30] = system: MDA-N
# [31] = system: MOLT-4
# [32] = system: COLO 205
# [33] = system: CCRF-CEM
# [34] = system: SF-539
# [35] = system: MCF7
# [36] = system: HT-29
# [37] = system: LOX IMVI
# [38] = system: SK-MEL-2
# [39] = system: M14
# [40] = system: DU-145
# [41] = system: HCC 2998
# [42] = system: A549
# [43] = system: HCT-116
# [44] = system: CAKI-1
# [45] = system: NCI-H23
# [46] = system: OVCAR-5
# [47] = system: UO-31
# [48] = system: U-251
# [49] = system: OVCAR-8
# [50] = system: SK-MEL-28
# [51] = system: SK-OV-3
# [52] = system: HOP-62
# [53] = system: HOP-92
# [54] = system: Malme-3M
# [55] = system: HCT-15
# [56] = system: Hs-578T
# [57] = system: NCI-H522
# [58] = system: HL-60
# [59] = system: SNB-75
smiles,measurement,setting,value
CCN(CC)c1ccc(/C=c2\nc(-c3ccccc3)n3c2nc2ccccc23)cc1,GI50,[1],64.4 µM (inactive)
same,GI50,[2],8.71 µM (inactive)
same,GI50,[3],1.93 µM (inactive)
same,GI50,[4],21.9 µM (inactive)
same,GI50,[5],16.9 µM (inactive)
same,GI50,[6],3.77 µM (inactive)
same,GI50,[7],3.98 µM (inactive)
same,GI50,[8],17 µM (inactive)
same,GI50,[9],4.58 µM (inactive)
same,GI50,[10],14.8 µM (inactive)
same,GI50,[11],16.8 µM (inactive)
same,GI50,[12],1.68 µM (inactive)
same,GI50,[13],1.98 µM (inactive)
same,GI50,[14],15 µM (inactive)
same,GI50,[15],3.64 µM (inactive)
same,GI50,[16],4.7 µM (inactive)
same,GI50,[17],9.62 µM (inactive)
same,GI50,[18],10.5 µM (inactive)
same,GI50,[19],1.67 µM (inactive)
same,GI50,[20],83.8 µM (inactive)
same,GI50,[21],1.48 µM (inactive)
same,GI50,[22],16.8 µM (inactive)
same,GI50,[23],4.27 µM (inactive)
same,GI50,[24],0.0256 µM (active)
same,GI50,[25],7.82 µM (inactive)
same,GI50,[26],26.5 µM (inactive)
same,GI50,[27],3.17 µM (inactive)
same,GI50,[28],14.5 µM (inactive)
same,GI50,[29],6.47 µM (inactive)
same,GI50,[30],6.25 µM (inactive)
same,GI50,[31],1.63 µM (inactive)
same,GI50,[32],5.14 µM (inactive)
same,GI50,[33],0.544 µM (active)
same,GI50,[34],1.48 µM (inactive)
same,GI50,[35],14.6 µM (inactive)
same,GI50,[36],1.89 µM (inactive)
same,GI50,[37],2.04 µM (inactive)
same,GI50,[38],15.4 µM (inactive)
same,GI50,[39],7.46 µM (inactive)
same,GI50,[40],26.8 µM (inactive)
same,GI50,[41],2.72 µM (inactive)
same,GI50,[42],6.21 µM (inactive)
same,GI50,[43],3.64 µM (inactive)
same,GI50,[44],0.885 µM (active)
same,GI50,[45],20 µM (inactive)
same,GI50,[46],77.3 µM (inactive)
same,GI50,[47],13.5 µM (inactive)
same,GI50,[48],2.1 µM (inactive)
same,GI50,[49],9.79 µM (inactive)
same,GI50,[50],0.0231 µM (active)
same,GI50,[51],24.4 µM (inactive)
same,GI50,[52],7.19 µM (inactive)
same,GI50,[53],68.7 µM (inactive)
same,GI50,[54],13 µM (inactive)
same,GI50,[55],1.23 µM
same,GI50,[56],24.4 µM (inactive)
COC(C)(C)/C=C/c1[nH]c2ccccc2c1CC(=O)NCCc1cn(C(c2ccccc2)(c2ccccc2)c2ccccc2)cn1,GI50,[1],3.25 µM (inactive)
same,GI50,[2],3.62 µM (inactive)
same,GI50,[3],3.44 µM (inactive)
same,GI50,[4],4.02 µM (inactive)
same,GI50,[5],7.87 µM (inactive)
same,GI50,[6],3.17 µM (inactive)
same,GI50,[7],5.12 µM (inactive)
same,GI50,[8],5.46 µM (inactive)
same,GI50,[9],4.7 µM (inactive)
same,GI50,[10],4.72 µM (inactive)
same,GI50,[11],7.16 µM (inactive)
same,GI50,[12],2.23 µM (inactive)
same,GI50,[13],2.62 µM (inactive)
same,GI50,[14],4.53 µM (inactive)
same,GI50,[15],2.92 µM (inactive)
same,GI50,[16],4.23 µM (inactive)
same,GI50,[17],4.92 µM (inactive)
same,GI50,[18],6.44 µM (inactive)
same,GI50,[19],3.44 µM (inactive)
same,GI50,[20],7.5 µM (inactive)
same,GI50,[21],2.39 µM (inactive)
same,GI50,[22],3.41 µM (inactive)
same,GI50,[23],4.72 µM (inactive)
same,GI50,[57],3.66 µM (inactive)
same,GI50,[24],2.71 µM (inactive)
same,GI50,[25],5.4 µM (inactive)
same,GI50,[26],7.91 µM (inactive)
same,GI50,[27],4.9 µM (inactive)
same,GI50,[28],3.65 µM (inactive)
same,GI50,[29],4.22 µM (inactive)
same,GI50,[30],4.33 µM (inactive)
same,GI50,[31],2.36 µM (inactive)
same,GI50,[32],2.02 µM (inactive)
same,GI50,[33],3.68 µM (inactive)
same,GI50,[34],4.13 µM (inactive)
same,GI50,[35],3.66 µM (inactive)
same,GI50,[36],2.71 µM (inactive)
same,GI50,[37],4.82 µM (inactive)
same,GI50,[38],2.64 µM (inactive)
same,GI50,[39],4.53 µM (inactive)
same,GI50,[40],> 31.6 µM (inactive)
same,GI50,[41],0.0272 µM (active)
same,GI50,[42],3.71 µM (inactive)
same,GI50,[43],4.12 µM (inactive)
same,GI50,[44],15.9 µM (inactive)
same,GI50,[45],4.41 µM (inactive)
same,GI50,[46],3.66 µM (inactive)
same,GI50,[47],5.77 µM (inactive)
same,GI50,[48],4.45 µM (inactive)
same,GI50,[49],4.99 µM (inactive)
same,GI50,[50],9.77 µM (inactive)
same,GI50,[52],5.92 µM (inactive)
same,GI50,[53],5.33 µM (inactive)
same,GI50,[54],3.76 µM (inactive)
same,GI50,[58],2.92 µM (inactive)
same,GI50,[55],4.25 µM
same,GI50,[56],7.1 µM (inactive)
C=CCSC1=N/C(=C\c2cccs2)C(=O)N1CC=C,GI50,[1],26.4 µM (inactive)
same,GI50,[2],60.3 µM (inactive)
same,GI50,[3],33.7 µM (inactive)
same,GI50,[4],49.8 µM (inactive)
same,GI50,[5],44.4 µM (inactive)
same,GI50,[6],29.4 µM (inactive)
same,GI50,[7],75.2 µM (inactive)
same,GI50,[8],> 100 µM (inactive)
same,GI50,[9],81.5 µM (inactive)
same,GI50,[10],83.4 µM (inactive)
same,GI50,[11],16.7 µM (inactive)
same,GI50,[12],32.5 µM (inactive)
same,GI50,[13],61.9 µM (inactive)
same,GI50,[14],54.6 µM (inactive)
same,GI50,[15],32.3 µM (inactive)
same,GI50,[16],82.2 µM (inactive)
same,GI50,[17],> 100 µM (inactive)
same,GI50,[18],63.2 µM (inactive)
same,GI50,[19],19.2 µM (inactive)
same,GI50,[20],> 100 µM (inactive)
same,GI50,[21],21.9 µM (inactive)
same,GI50,[22],53.1 µM (inactive)
same,GI50,[23],45.4 µM (inactive)
same,GI50,[57],49.4 µM (inactive)
same,GI50,[24],15.4 µM (inactive)
same,GI50,[25],> 100 µM (inactive)
same,GI50,[26],> 100 µM (inactive)
same,GI50,[27],38.6 µM (inactive)
same,GI50,[28],44.2 µM (inactive)
same,GI50,[29],40 µM (inactive)
same,GI50,[30],42.9 µM (inactive)
same,GI50,[31],18.7 µM (inactive)
same,GI50,[32],56.2 µM (inactive)
same,GI50,[34],> 100 µM (inactive)
same,GI50,[35],27.3 µM (inactive)
same,GI50,[36],32.8 µM (inactive)
same,GI50,[37],46.1 µM (inactive)
same,GI50,[38],> 100 µM (inactive)
same,GI50,[39],54.5 µM (inactive)
same,GI50,[40],79.3 µM (inactive)
same,GI50,[41],58.9 µM (inactive)
same,GI50,[42],33.7 µM (inactive)
same,GI50,[43],32.7 µM (inactive)
same,GI50,[44],> 100 µM (inactive)
same,GI50,[45],94.8 µM (inactive)
same,GI50,[46],> 100 µM (inactive)
same,GI50,[47],37.4 µM (inactive)
same,GI50,[48],61.5 µM (inactive)
same,GI50,[49],44.6 µM (inactive)
same,GI50,[50],> 100 µM (inactive)
same,GI50,[51],> 100 µM (inactive)
same,GI50,[52],> 100 µM (inactive)
same,GI50,[53],12.9 µM (inactive)
same,GI50,[54],> 100 µM (inactive)
same,GI50,[55],66.1 µM
same,GI50,[56],> 100 µM (inactive)
CC(C)[S+]1C2=C(CC(C)(C)CC2=O)[N-]c2ccccc21 (stereo unspecified),GI50,[1],> 100 µM (inactive)
same,GI50,[2],> 100 µM (inactive)
same,GI50,[3],> 100 µM (inactive)
same,GI50,[4],> 100 µM (inactive)
same,GI50,[5],> 100 µM (inactive)
same,GI50,[6],> 100 µM (inactive)
same,GI50,[7],> 100 µM (inactive)
same,GI50,[8],> 100 µM (inactive)
same,GI50,[9],> 100 µM (inactive)
same,GI50,[10],> 100 µM (inactive)
same,GI50,[11],> 100 µM (inactive)
same,GI50,[12],> 100 µM (inactive)
same,GI50,[13],> 100 µM (inactive)
same,GI50,[14],> 100 µM (inactive)
same,GI50,[15],> 100 µM (inactive)
same,GI50,[16],> 100 µM (inactive)
same,GI50,[17],> 100 µM (inactive)
same,GI50,[18],> 100 µM (inactive)
same,GI50,[19],> 100 µM (inactive)
same,GI50,[20],> 100 µM (inactive)
same,GI50,[21],> 100 µM (inactive)
same,GI50,[22],> 100 µM (inactive)
same,GI50,[23],> 100 µM (inactive)
same,GI50,[57],> 100 µM (inactive)
same,GI50,[24],> 100 µM (inactive)
same,GI50,[25],> 100 µM (inactive)
same,GI50,[26],> 100 µM (inactive)
same,GI50,[27],> 100 µM (inactive)
same,GI50,[28],> 100 µM (inactive)
same,GI50,[29],> 100 µM (inactive)
same,GI50,[30],> 100 µM (inactive)
same,GI50,[31],> 100 µM (inactive)
same,GI50,[32],> 100 µM (inactive)
same,GI50,[33],> 100 µM (inactive)
same,GI50,[35],> 100 µM (inactive)
same,GI50,[36],> 100 µM (inactive)
same,GI50,[37],> 100 µM (inactive)
same,GI50,[38],> 100 µM (inactive)
same,GI50,[39],> 100 µM (inactive)
same,GI50,[40],> 100 µM (inactive)
same,GI50,[41],> 100 µM (inactive)
same,GI50,[42],> 100 µM (inactive)
same,GI50,[43],> 100 µM (inactive)
same,GI50,[44],> 100 µM (inactive)
same,GI50,[59],> 100 µM (inactive)
same,GI50,[45],> 100 µM (inactive)
same,GI50,[46],> 100 µM (inactive)
same,GI50,[47],> 100 µM (inactive)
same,GI50,[48],> 100 µM (inactive)
same,GI50,[49],> 100 µM (inactive)
same,GI50,[50],> 100 µM (inactive)
same,GI50,[51],> 100 µM (inactive)
same,GI50,[52],> 100 µM (inactive)
same,GI50,[53],> 100 µM (inactive)
same,GI50,[54],> 100 µM (inactive)
same,GI50,[55],> 100 µM
same,GI50,[56],> 100 µM (inactive)
